From US20160207970A1, “POLYPEPTIDE FOR THE PROTECTION AGAINST HEART ISCHEMIA-REPERFUSION INJURY” (Pharis Biotech GmbH, priority 2011, published 2016)
“Also recorded” adds a separate entry of the source. Like-named read-outs stand apart in the source and are kept apart here. Blank lines part the entries; values can stand above or below the substance they belong to. Where no end group is shown, it is not given here.

Key:
in vitro rat heart = details: cited from earlier work
[1] = test system: isolated, retrogradely perfused rat hearts; assay: Normoxic perfusion of isolated rat hearts (no preceding ischemia); details: 0.3 nM between 35 and 50 min of perfusion
Protocol: (§1) For anesthesia, a mixture of midazolam (2.5 mg/kg), fluanisone (2.5 mg/kg) and fentanyl citrate (0.08 mg/kg) was administered subcutaneously. Heparin ([…]. per kg) was administered through the femoral vein. The animals were ventilated via a tracheotomy with a mixture of 35% O2/65% N2 and the chest cavity was opened. The excised heart was immediately placed in an ice-cold Krebs Henseleit buffer. The heart was quickly mounted onto the Langendorff perfusion system (ADInstruments, UK) and perfused with modified Krebs-Henseleit solution (NaCl 118.5 mM, KCl 4.7 mM, NaHCO3 25.0 mM, MgSO4 1.2 mM, CaCl2 1.4 mM, glucose 11.1 mM), equilibrated to pH 7.4 with a gas mixture of 5% CO2/95% 02, at 37° C. The left auricle was removed and a size 7 balloon (ADInstruments) was inserted into the left ventricle through the left atrium and adjusted to a diastolic pressure of 4-10 mmHg. Perfusion pressure was set to 70 mm Hg and maintained at this average value by a servo control system (ML175 STH Pump Controller, ADInstruments) continually adjusting the peristaltic pump revolutions according to flow resistance. The hearts were allowed to stabilize for 20 min prior to recording of left ventricle functional parameter baseline values over the next 10 min: pressure (systolic, LVS; diastolic, LVD; developed, LVDEV=LVS-LVD), beats per minute (BPM) and rate-pressure product (RPP). Power Lab 8/30 system and Chart 5 Pro Software from ADInstruments were used for these recordings.
(§2) Hearts were also excluded if ventricular fibrillation lasting more than 5 min occurred during reperfusion.
FIG. 1 outlines the time course for normoxic (A) and ischemia-reperfusion (B) experiments. The experimental groups were: control normoxia, no peptide addition; normoxia, N—Ac-GLP-1(7-34)amide 0.3 nM; control ischemia-reperfusion (IR), no peptide addition; IR, N—Ac-GLP-1(7-34)amide 0.3 nM; IR, N—Ac-GLP-1(7-34)amide 0.3 nM+exendin(9-39) 3 nM; IR, exendin(9-39) 3 nM. […] “Stab” indicates 30 min stabilization period. […]

[2] = test system: isolated, retrogradely perfused rat hearts; assay: Global ischemia (35 min)-reperfusion (120 min) in isolated, retrogradely perfused (Langendorff) rat hearts; peptide postconditioning; details: for LVD AUC / LVD-lowering effect in the presence of exendin(9-39): N-Ac-GLP-1(7-34)amide 0.3 nM + exendin(9-39) 3 nM versus control ischemia; for Infarct size (% IS/AAR): 15 min at onset of reperfusion; for Left ventricle developed pressure (LVDEV) AUC / Rate-pressure product (RPP) AUC / Left ventricle diastolic pressure (LVD) AUC over last 60 min of reperfusion / post-ischemic diastolic contracture: postconditioning 0.3 nM versus control ischemia
Protocol: Global ischemia (35 min)-reperfusion (120 min) was applied in isolated, retrogradely perfused rat hearts. Peptides were present for 15 min at the onset of reperfusion. Cardiac function parameters (beats per minute, left ventricle developed and diastolic pressures, rate-pressure product) throughout the course of the perfusion were measured. Infarct size was determined on collected hearts by 2,3,5-tripehyltetrazolium chloride staining and planimetry.
as §1, §2
FIG. 1 outlines the time course for normoxic (A) and ischemia-reperfusion (B) experiments. The experimental groups were: control normoxia, no peptide addition; normoxia, N—Ac-GLP-1(7-34)amide 0.3 nM; control ischemia-reperfusion (IR), no peptide addition; IR, N—Ac-GLP-1(7-34)amide 0.3 nM; IR, N—Ac-GLP-1(7-34)amide 0.3 nM+exendin(9-39) 3 nM; IR, exendin(9-39) 3 nM. […] “Stab” indicates 30 min stabilization period. When present, peptides were added for 15 min, from the beginning of the last 120 min of perfusion (A) or reperfusion (B). Total perfusion time was always 185 min, consisting of 30 min stabilization, followed by 155 min of normoxic perfusion (FIG. 1A) or 35 min global ischemia-120 min reperfusion (FIG. 1B).
Following reperfusion, the hearts were processed for 2, 3, 5-triphenyltetrazolium chloride staining and planimetric infarct size determination, as described earlier. Quantitation was done by an investigator blinded to the experimental conditions. Infarct size (IS) was expressed as a percentage of total ischemic area at risk (AAR) (% IS/AAR).
All values are presented as means, with SEM given in parantheses. One-way ANOVA with Dunnett's post hoc test (GraphPad Prism® 5) was used to compare treatment results to control conditions. P<0.05 was considered significant.

[3] = listed as N—Ac-GLP-1(7-34)-amide
[4] = listed as N—Ac-GLP-1-(7-34)amide

Substance: GLP-1 (HAEGTFTSDVSSYLEGQAAKEFIAWLVKGR; ends and bridges not checked; UniProt P01275 98-127, looked up) [natural hormone GLP-1]
- Effect on myocardial infarction (in vitro rat heart; GLP-1 alone): did not decrease
- Effect on myocardial infarction (in vitro rat heart; GLP-1 in combination with the GLP-1 breakdown inhibitor valine pyrrolidide (VP)): significant reduction

- Infarct size-limiting action in the presence of GLP-1 receptor antagonist exendin(9-39) ([2]; co-administration of exendin(9-39) 3 nM): abolished
Substance: N—Ac-GLP-1(7-34)amide (Ac-HAEGTFTSDVSSYLEGQAAKEFIAWLVK-NH2) [N-terminally acetylated, C-terminally truncated analogue of GLP-1]
- Functional heart parameters (BPM, LVDEV, LVD, RPP) under normoxic perfusion [1]: not affected
- Functional heart parameters (BPM, LVDEV, LVD, RPP) under normoxic perfusion [1, 3]: nor did it affect
- Functional heart parameters (BPM, LVDEV, LVD, RPP) under normoxic perfusion [1, 4]: No effect
- Trend towards LVDEV improvement in the presence of exendin(9-39) ([2]; N-Ac-GLP-1(7-34)amide 0.3 nM + exendin(9-39) 3 nM): abolished
- LVD AUC / LVD-lowering effect in the presence of exendin(9-39) [2]: blocked
- LVD AUC / LVD-lowering effect in the presence of exendin(9-39) [2, 4]: not affected
- Infarct size (% IS/AAR) ([2]; N-Ac-GLP-1(7-34)amide 0.3 nM in the presence of exendin(9-39) 3 nM, mean): 21.4%
- Infarct size (IS) as percentage of area at risk (% IS/AAR) ([2]; peptide 0.3 nM for 15 min at onset of reperfusion, mean, control ischemia-reperfusion without peptide 24.8% / 28.4%): 11.4%
- Left ventricle developed pressure (LVDEV) AUC [2]: did not affect
- Rate-pressure product (RPP) AUC [2]: did not affect
- Left ventricle diastolic pressure (LVD) AUC over last 60 min of reperfusion / post-ischemic diastolic contracture ([2]; P<0.05): diminished diastolic hypercontracture; also recorded: significant decrease
- Left ventricle diastolic pressure (LVD) AUC over last 60 min of reperfusion / post-ischemic diastolic contracture ([2]; P<0.05, listed as N—Ac-GLP-1(7-34)-amide): diminished significantly
- Left ventricle diastolic pressure (LVD) AUC over last 60 min of reperfusion / post-ischemic diastolic contracture ([2]; P<0.05, listed as N—Ac-GLP-1-(7-34)amide): significantly decreased
- Relative decrease in infarct size ([2]; postconditioning 0.3 nM versus control ischemia-reperfusion): approximately 54%
- Left ventricle developed pressure (LVDEV) AUC [2, 3]: no significant effect
- Rate-pressure product (RPP) AUC [2, 3]: no significant effect
- Left ventricle developed pressure (LVDEV) AUC [2, 4]: did not increase
- Rate-pressure product (RPP) AUC [2, 4]: did not increase
- Effect on infarct size (in words) ([2]; postconditioning 0.3 nM versus no peptide, P<0.05): diminished infarct size; also recorded: significant decrease

Substance: exendin(9-39) [reference compound]
- Effect on infarct-limiting actions of GLP-1 (in vitro rat heart; exendin(9-39) given with GLP-1): abolish
- LVD AUC over last 60 min of reperfusion ([2]; exendin(9-39) 3 nM alone versus control ischemia): not affected
- Infarct size (% IS/AAR) ([2]; exendin(9-39) 3 nM alone, mean): 21.7%
